In article PMC5282889 (Bioorganic & medicinal chemistry letters, 2016):

What was measured:
[1] = target: BuChE (Homo sapiens, UniProt P06276); test: Ellman assay, BuChE inhibition; assay type: biochemical; settings: read-out: BuChE inhibition (%), tested at 10 μM concentration
[2] = target: Aβ (Homo sapiens, UniProt P05067); test: Aβ fibrillogenesis, Thioflavin-T; assay type: biochemical; settings: for Aβ fibril inhibition (%): Aβ:inhibitor = 1:1 ratio at 100 μM Aβ concentration
[3] = target: Aβ-peptide (Homo sapiens, UniProt P05067); test: High resolution mass spectrometry of inhibitor-Aβ complex formation; assay type: binding; settings: Aβ-peptide-14 mixture (30 μM to 150 μM); 1:1 and 1:2 complexes observed
[4] = target: AChE (Homo sapiens, UniProt P22303); test: biochemical; settings: read-out: AChE inhibition (%)
Chain of AChE (P22303 32-614): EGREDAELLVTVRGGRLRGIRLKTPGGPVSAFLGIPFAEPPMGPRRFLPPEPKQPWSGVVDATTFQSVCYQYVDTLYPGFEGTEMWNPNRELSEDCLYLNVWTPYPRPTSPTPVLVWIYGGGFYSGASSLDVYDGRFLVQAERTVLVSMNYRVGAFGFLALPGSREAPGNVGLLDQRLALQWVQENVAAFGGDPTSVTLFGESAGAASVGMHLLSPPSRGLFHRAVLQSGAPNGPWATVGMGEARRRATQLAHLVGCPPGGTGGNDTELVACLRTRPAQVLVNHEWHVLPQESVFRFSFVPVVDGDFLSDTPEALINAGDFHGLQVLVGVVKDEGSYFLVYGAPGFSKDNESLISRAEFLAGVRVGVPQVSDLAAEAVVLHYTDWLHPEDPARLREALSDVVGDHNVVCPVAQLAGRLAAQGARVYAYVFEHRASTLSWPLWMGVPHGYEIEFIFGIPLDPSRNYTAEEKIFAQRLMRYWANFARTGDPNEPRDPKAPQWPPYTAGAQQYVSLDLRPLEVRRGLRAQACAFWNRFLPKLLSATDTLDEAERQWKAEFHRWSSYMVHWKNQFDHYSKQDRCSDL

Chain of Aβ (P05067 672-711 limits assumed): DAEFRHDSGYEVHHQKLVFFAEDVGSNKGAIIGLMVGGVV
Chain of BuChE (P06276 29-602): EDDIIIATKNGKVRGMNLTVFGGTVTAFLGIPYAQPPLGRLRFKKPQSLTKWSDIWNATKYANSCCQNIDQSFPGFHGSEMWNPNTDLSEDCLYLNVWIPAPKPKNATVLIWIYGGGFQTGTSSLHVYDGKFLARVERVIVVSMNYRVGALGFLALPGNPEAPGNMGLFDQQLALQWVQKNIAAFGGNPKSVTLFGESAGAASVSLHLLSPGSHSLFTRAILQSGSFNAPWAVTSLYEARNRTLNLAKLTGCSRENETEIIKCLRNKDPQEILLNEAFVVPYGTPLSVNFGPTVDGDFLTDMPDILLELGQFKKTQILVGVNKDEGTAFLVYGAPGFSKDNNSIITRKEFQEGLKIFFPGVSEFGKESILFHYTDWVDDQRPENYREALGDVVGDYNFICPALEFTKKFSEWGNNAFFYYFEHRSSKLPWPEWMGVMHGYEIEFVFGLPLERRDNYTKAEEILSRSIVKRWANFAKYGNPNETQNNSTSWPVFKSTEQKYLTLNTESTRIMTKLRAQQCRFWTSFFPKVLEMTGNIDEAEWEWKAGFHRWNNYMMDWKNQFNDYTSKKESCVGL
Chain of Aβ-peptide (P05067 672-711 limits assumed): as the sequence (P05067 672-711 limits assumed) above

Row | Compound | inhibition at 10 µM [1] [%] | Aβ fibril inhibition (%) [2] [%] | Complex formation with Aβ peptide (HR-MS) [3] | inhibition at 2 µM [4] [%] | EC50 [2] [µM]
1 | Fc1ccc(-c2nccc3c2[nH]c2ccccc23)cc1 [Compound 6] | > 80 | 39 |  |  | 
2 | c1ccc2c(-c3nccc4c3[nH]c3ccccc34)cccc2c1 [Compound 14] | > 80 |  | forms a complex with the peptide | -11 | ~110
3 | COc1ccc2[nH]c3c(-c4ccc(C)cc4)nccc3c2c1 [Compound 4] |  |  |  | -15 | 
4 | c1ccc2c(c1)[nH]c1c(C3CCCCC3)nccc12 [Compound 13] |  | −12 |  |  | 
5 | c1ccc(-c2nccc3c2[nH]c2ccccc23)cc1 [Compound 1] |  |  |  | -12 | 
